Data from patent US10588935B2, “FC receptor (FcRn) binding peptides and uses thereof” (THE BRIGHAM AND WOMEN'S HOSPITAL, INC., priority 2013, dated 2020).
pKd: −log10 of the molar value. Entries after “also recorded” stand apart in the source; their conditions may differ. Like-named read-outs stand apart in the source and are kept apart here. Bridge positions count the residues as written; N and C are the ends. Peptide text beside a SMILES is read from it.

Columns and labels:
shFcRn binding to HSA = shFcRn binding to HSA (Homo sapiens, UniProt P55899); assay: SPR screening of FcRn binding peptides for inhibition of shFcRn binding to immobilized HSA; settings: 14 uM peptide, 5 uM shFcRn, pH 6
Sequence of shFcRn binding to HSA (P55899 24-297 limits assumed): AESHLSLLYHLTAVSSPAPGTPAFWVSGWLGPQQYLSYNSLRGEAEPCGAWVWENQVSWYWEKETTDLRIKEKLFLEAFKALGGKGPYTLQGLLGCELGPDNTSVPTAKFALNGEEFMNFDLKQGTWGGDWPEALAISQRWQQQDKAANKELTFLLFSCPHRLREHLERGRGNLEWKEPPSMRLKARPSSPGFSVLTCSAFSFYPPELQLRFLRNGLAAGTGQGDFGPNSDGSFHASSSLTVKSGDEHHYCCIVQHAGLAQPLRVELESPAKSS
Sequence of shFcRn binding to HSA (P61769 21-119 partner): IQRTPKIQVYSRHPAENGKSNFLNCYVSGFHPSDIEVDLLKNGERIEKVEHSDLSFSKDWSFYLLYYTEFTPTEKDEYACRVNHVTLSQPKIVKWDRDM
Procedure: Unreacted sites were then capped by injecting a solution of ethanolamine over the chip surface. A reference flow cell was activated with EDC/NHS and then blocked with ethanolamine.
Samples were injected over the chip for 3 minutes at 20 uL/min followed by a 2.5 minute dissociation phase.

FcRn [1] = target: T1, FcRn (Homo sapiens, UniProt P55899); settings: Mezo, PNAS, 2007; cited from earlier work
T1 sequence (P55899 24-297 limits assumed): as the sequence (P55899 24-297 limits assumed) above
T1 sequence (P61769 21-119 partner): as the sequence (P61769 21-119 partner) above

FcRn [2] = target: T1, FcRn; assay: Competition for albumin or IgG binding to FcRn; parameters: Soluble human FcRn was expressed and purified by Biogen-Idec as previously described (29)
Excerpt: Peptide phage libraries, obtained from Dyax Corp, were screened against biotinylated soluble human FcRn bound to streptavidin beads, using 3 rounds of sequential pH 6.0 binding and pH 7.5 elution/amplification protocols. […] Peptide SYN514 was utilized during a 2nd peptide phage screen to occupy this site on FcRn prior to the addition of the phage libraries, and to identify albumin-competitive sequences. This strategy uncovered the albumin-competitive peptide, SYN571, and through structure-activity relationships, the shorter sequence SYN1753 (Ac-[…]-CONH2 (SEQ ID NO: 1) (disulfide) which bound to shFcRn with equivalent affinity as determined by SPR.

soluble human FcRn = target: T2, soluble human FcRn (Homo sapiens, UniProt P55899); assay: SPR (Biacore) affinity of peptides for immobilized soluble human FcRn; assay type: binding; settings: pH 6.0; for pKd: read-out: affinity for FcRn by SPR
T2 construct: Soluble human FcRn was expressed and purified by Biogen-Idec as previously described (29)
T2 sequence (P55899 24-297 limits assumed): as the sequence (P55899 24-297 limits assumed) above
T2 sequence (P61769 21-119 partner): as the sequence (P61769 21-119 partner) above
In short: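 FcRn amine-coupled to CM5 chip; binding run at pH 6.0 or 7.4 in 50 mM phosphate, 100 mM NaCl, 0.01% P20, with 5-minute dissociation and pH 8.0 Tris regeneration. KD derived from sensorgrams with a 1:1 binding model; end-of-association responses plotted versus concentration.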

[3] = system: MDCK II cells expressing hFcRn and hβ2m; assay: FcRn dependent albumin transcytosis bioassay; assay type: cell-based, canine; settings: input chamber pH 6.0, exit pH 7.4, 2 hours, compared to scrambled peptide or isotype control
Procedure: Albumin transcytosis assays were performed as previously described for IgG. In brief, MDCK II cells expressing hβ2m and hFcRn were grown to confluence on transwells (Costar) and allowed to polarize over 4 days. 12 hours before the transcytosis experiment, the medium was changed to serum-free media without antibiotics. On the day of experiment, the transwells were incubated with HBSS pH 7.4 for 20 minutes before placing on a new 12 well plate (Costar) where the input chamber contains HBSS pH 6.0 and the exit chamber contains HBSS pH 7.4 and pH adjusted albumin was added to the input chamber afterwards. For blocking albumin transcytosis with the peptide inhibitors SYN1753 and SYN3258, transwells were pre-incubated for 20 min with the respective peptides in HBSS pH 6.0 prior to the addition of albumin in the continued presence of the peptides. After incubating for 2 hours in 37° C. and 5% CO2, the medium at the opposite chamber were harvested and the albumin concentration was measured using ELISA method. For the recycling assay, the transwells were washed with HBSS pH 7.4 for 5 minutes before placing on a new 12-well plate with HBSS pH 6.0 at both chambers. After equilibration at 37° C. and 5% CO2, pH adjusted albumin human albumin was added and allowed to incubate for one hour. The transwells were then washed at HBSS pH 6.0 before placing in a new 12-well plate with HBSS pH 7.4 at both chambers. After one hour incubation, medium from the input chamber was removed and the albumin concentration was measured by ELISA. For the human albumin secretion assay the medium was changed to serum- and antibiotic-free media on the day of the experiment. 50 μL of the medium from both chambers were removed periodically over 24 hours, and the human albumin concentration was measured using ELISA with volume reduction adjustment.

[4] = system: hFCGRT^Tg/hB2m^Tg/mFcgrt^−/− mice; assay: In vivo acetaminophen toxicity with blockade of FcRn-albumin interaction; parameters: species or system mouse; settings: 40 mg/kg body weight per day via i.p. osmotic pump; vs control peptide
Procedure: In vivo acetaminophen toxicity experiments: Acetaminophen (Sigma-Aldrich) was diluted in PBS at a concentration of 33.3 mg/ml. […] In blocking experiments using antibody administration, ADM31 or isotype control were administered 14 h prior to the injection of APAP. For blocking the interaction between FcRn and albumin via peptide, a cyclic control peptide for SYN3258 was designed in which three key residues per monomer that were identified by alanine screening to be critical for binding between FcRn and albumin were mutated to alanines (W7A, W11A, […]). SYN3258 or the control peptide were then continuously administered at a dose of 40 mg/kg body weight per day via i.p. osmotic pumps (Alzet, Cupertino, Cat. No 1003D) over a 72 hour period. Prior to the surgical implantation of the pumps, mice were anaesthetized with Buprenex (0.1 mg/kg body weight) s.c. and Ketamine HCl (100 mg/kg)/Xylazine (10 mg/kg) i.p. Hair on the incision site was clipped and the implantation area was disinfected by 5% iodine in 70% isopropanol. Antibiotics (100 μg/ml of gentamycin) were sprayed on the area of incision to prevent infection, and skin was sutured using polypropylene suture. Total duration of the surgical procedure was around 5 minutes per mouse. 18-20 hours after pump implantation, a lethal dose of acetaminophen was administered i.p.

Structure (SMILES): CC(=O)N[C@@H](CCCNC(=N)N)C(=O)N[C@@H](Cc1ccccc1)C(=O)N[C@@H]1C(=O)N[C@@H]([C@@H](C)O)C(=O)NCC(=O)N[C@@H](Cc2c[nH]cn2)C(=O)N[C@@H](Cc2ccccc2)C(=O)NCC(=O)N(C)CC(=O)N(C)[C@@H](CC(C)C)C(=O)N[C@@H](Cc2ccc(O)cc2)C(=O)N2CCC[C@H]2C(=O)N[C@H](C(N)=O)CSSC1(C)C [SYN1327, Ac-RF-Pen-TGHFG-Sar-NMeLeu-YPC-CONH2, reference compound]
- block of shFcRn binding to immobilized HSA (shFcRn binding to HSA): not able to compete for HSA binding
- block of IgG binding to hFcRn (FcRn [1]): block the binding of IgG to hFcRn
- Competition for albumin or IgG binding to FcRn (FcRn [2]; Table 3): IgG
- competition with IgG or albumin for the FcRn binding site (FcRn [2]; competition experiments / SPR): competes for binding of IgG

Structure (SMILES): CC(=O)N[C@@H](CCCNC(=N)N)C(=O)N[C@@H](Cc1ccc(O)cc1)C(=O)N[C@@H](Cc1ccccc1)C(=O)N[C@H]1CSSC[C@@H](C(=O)N[C@@H](CCC(=O)O)C(=O)N[C@@H](CCC(=O)O)C(=O)N[C@H](C(=O)NCC(=O)N[C@H](C(N)=O)[C@@H](C)O)C(C)C)NC(=O)[C@H](Cc2c[nH]c3ccccc23)NC(=O)CNC(=O)[C@H](Cc2c[nH]cn2)NC(=O)[C@H](CCCCN)NC(=O)[C@H](Cc2c[nH]c3ccccc23)NC(=O)[C@H](CCCCN)NC(=O)[C@H]([C@@H](C)O)NC1=O [SYN1753]
- Kd (soluble human FcRn; Table 3, read-out: Kd, pH 6.0 (Biacore μM)): 0.5 µM
- pKd (soluble human FcRn): ~6.30
- transcytosis of human albumin [3]: capable of blocking transcytosis of human albumin; also recorded: significantly reducing

Structure (SMILES): CC(=O)N[C@@H](CCCNC(=N)N)C(=O)N[C@@H](Cc1ccc(O)cc1)C(=O)N[C@@H](Cc1ccccc1)C(=O)N[C@H]1CSSC[C@@H](C(=O)N[C@@H](CCC(=O)O)C(=O)N[C@@H](CCC(=O)O)C(=O)N[C@H](C(=O)NCC(=O)N[C@H](C(=O)NCC(=O)NCC(=O)NCC(=O)N[C@@H](CCCNC(=N)N)C(=O)N[C@@H](Cc2ccc(O)cc2)C(=O)N[C@@H](Cc2ccccc2)C(=O)N[C@H]2CSSC[C@@H](C(=O)N[C@@H](CCC(=O)O)C(=O)N[C@@H](CCC(=O)O)C(=O)N[C@H](C(=O)NCC(=O)N[C@H](C(N)=O)[C@@H](C)O)C(C)C)NC(=O)[C@H](Cc3c[nH]c4ccccc34)NC(=O)CNC(=O)[C@H](Cc3c[nH]cn3)NC(=O)[C@H](CCCCN)NC(=O)[C@H](Cc3c[nH]c4ccccc34)NC(=O)[C@H](CCCCN)NC(=O)[C@H]([C@@H](C)O)NC2=O)[C@@H](C)O)C(C)C)NC(=O)[C@H](Cc2c[nH]c3ccccc23)NC(=O)CNC(=O)[C@H](Cc2c[nH]cn2)NC(=O)[C@H](CCCCN)NC(=O)[C@H](Cc2c[nH]c3ccccc23)NC(=O)[C@H](CCCCN)NC(=O)[C@H]([C@@H](C)O)NC1=O [SYN3258] (Ac-RYFCTKWKHGWCEEVGTGGGRYFCTKWKHGWCEEVGT-NH2; disulfide 4-12, 24-32)
- protection from liver injury (serum ALT) after lethal dose of APAP [4]: conferred protection from liver injury
- survival rate after lethal dose of APAP [4]: improve the survival rate
- pKd (soluble human FcRn): 8.44
- transcytosis of human albumin [3]: capable of blocking transcytosis of human albumin; also recorded: inhibit FcRn-directed transcytosis of albumin
- transcytosis of human albumin ([3]; listed as Syn3258): significantly reducing
